Reference: patent US20020137929A1, “1 - (3-heterocyclylphenyl) isothiourea, -isourea, -guanidine and -amidine herbicidal agents” (Intellectual Property Department, BASF Aktiengesellschaft, priority 1998, published 2002)

Tests used:
[1] = test system: SETVI (Foxtail, Green); assay: Preemergence herbicidal evaluation; format: in vivo, Setaria viridis; details: rated 4-5 weeks after treatment
How it was run: (§1)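 Scores use a 0–9 visual scale covering stand, vigor, malformation, size and chlorosis relative to controls, rated four to five weeks after treatment. Before emergence, soil-planted seeds were sprayed with compound in aqueous acetone at roughly 0.0156–0.500 kg/ha and held in the greenhouse.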

[2] = test system: ORYSAT (Rice, Tebonnet); assay: Postemergence herbicidal evaluation; format: in vivo, Oryza sativa, (L.) Tebonnet; details: postemergence
How it was run: (§2)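 Young plants, roughly two weeks from seeding, receive the active ingredient as a sprayed dispersion (acetone/water 50/50, 0.5% TWEEN 20) at 40 psi. Doses span about 0.0156 to 0.500 kg/ha. A visual score from 0 to 9 compares treated with control plants four to five weeks on.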

[3] = test system: ECHORC (Watergrass (Calif.)); assay: Preemergence weed control under flooded paddy conditions; format: in vivo, Echinochloa oryzoides; details: rated 3-4 weeks after treatment
How it was run: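 First, seeds or propagules go into the top 0.5 cm of silt loam; next, water is held 1.5 to 3 cm over the soil; then compound (50/50 acetone/water) is pipetted into it at about 0.0313 to 0.500 kg/ha; finally plants are rated visually 0-9 after three to four weeks.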

[4] = test system: CASOB (Sicklepod); assay: Preemergence herbicidal evaluation; format: in vivo, Cassia obtusifolia; details: rated 4-5 weeks after treatment
How it was run: as §1

[5] = test system: SAGPY (Arrowhead (Pygmaea)); assay: Preemergence weed control under flooded paddy conditions; format: in vivo, Sagittaria pygmaea; details: rated 3-4 weeks after treatment
How it was run: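 Seeds or propagules sown in top 0.5 cm of silt loam soil, flooded 1.5 to 3 cm above surface throughout. Compound in 50/50 v/v aqueous/acetone pipetted into flood water at about 0.0313 to 0.500 kg/ha. Visual 0-9 rating versus control after three to four weeks in greenhouse.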

[6] = test system: CASOB (Sicklepod); assay: Postemergence herbicidal evaluation; format: in vivo, Cassia obtusifolia; details: postemergence
How it was run: as §2

[7] = test system: IPOHE (Morningglory, Ivyleaf); assay: Postemergence herbicidal evaluation; format: in vivo, Ipomoea hederacea; details: postemergence
How it was run: as §2

[8] = test system: AMBEL (Ragweed, Common); assay: Preemergence herbicidal evaluation; format: in vivo, Ambrosia artemisifolia; details: rated 4-5 weeks after treatment
How it was run: as §1

[9] = test system: CHEAL (Lambsquarters, Common); assay: Preemergence herbicidal evaluation; format: in vivo, Chenopodium album; details: rated 4-5 weeks after treatment
How it was run: as §1

[10] = test system: GALAP (Galium); assay: Preemergence herbicidal evaluation; format: in vivo, Galium aparine; details: rated 4-5 weeks after treatment
How it was run: as §1

[11] = test system: SETVI (Foxtail, Green); assay: Postemergence herbicidal evaluation; format: in vivo, Setaria viridis; details: postemergence
How it was run: as §2

[12] = test system: AMBEL (Ragweed, Common); assay: Postemergence herbicidal evaluation; format: in vivo, Ambrosia artemisifolia; details: postemergence
How it was run: as §2

[13] = test system: ZEAMX (Corn, Field); assay: Postemergence herbicidal evaluation; format: in vivo, Zea mays; details: postemergence
How it was run: as §2

[14] = test system: TRZAWR (Wheat, Winter, cv Riband); assay: Postemergence herbicidal evaluation; format: in vivo, Triticum aestivum; details: postemergence
How it was run: as §2

[15] = test system: ECHCG (Barnyardgrass); assay: Preemergence herbicidal evaluation; format: in vivo, Echinochloa crus-galli; details: rated 4-5 weeks after treatment
How it was run: as §1

[16] = test system: TRZAWR (Wheat, Winter, cv Riband); assay: Preemergence herbicidal evaluation; format: in vivo, Triticum aestivum; details: rated 4-5 weeks after treatment
How it was run: as §1

[17] = test system: GALAP (Galium); assay: Postemergence herbicidal evaluation; format: in vivo, Galium aparine; details: postemergence
How it was run: as §2

CCOC(=O)CN1C(=O)C(Cc2ccccc2OC(C)C(=O)O)S/C1=N/c1cc(-n2c(=O)cc(C(F)(F)F)n(C)c2=O)c(F)cc1Cl (stereo not shown) [Compound 114, 5-[o-(1-Carboxyethoxy)benzyl]-2-{{2-chloro-5-[3,6-dihydro-3-methyl-2,6-dioxo-4-(trifluoromethyl)-1(2H)-pyrimidinyl]-4-fluorophenyl}imino}-4-oxo-3-thiazolidineacetic acid, 3-ethyl ester]
Preemergence herbicidal rating SETVI ([1]; rate 0.0156 kg/ha): 0.0
Preemergence herbicidal rating SETVI ([1]; rate 0.0313 kg/ha): 0.0
Preemergence herbicidal rating SETVI ([1]; rate 0.0625 kg/ha): 2.0
Preemergence herbicidal rating SETVI ([1]; rate 0.1250 kg/ha): 7.0
Preemergence herbicidal rating SETVI ([1]; rate 0.2500 kg/ha): 9.0
herbicidal rating ORYSAT ([2]; rate 0.0158 kg/ha): 1.5
herbicidal rating ORYSAT ([2]; rate 0.0315 kg/ha): 2.0
herbicidal rating ORYSAT ([2]; rate 0.0630 kg/ha): 3.0
ECHORC herbicidal effect rating ([3]; 0.0313 kg/ha): 6.0
ECHORC herbicidal effect rating ([3]; 0.0625 kg/ha): 7.0
ECHORC herbicidal effect rating ([3]; 0.1250 kg/ha): 7.0
ECHORC herbicidal effect rating ([3]; 0.2500 kg/ha): 8.0
Preemergence herbicidal rating CASOB ([4]; rate 0.0156 kg/ha): 0.0
Preemergence herbicidal rating CASOB ([4]; rate 0.0313 kg/ha): 0.0
Preemergence herbicidal rating CASOB ([4]; rate 0.0625 kg/ha): 1.0
Preemergence herbicidal rating CASOB ([4]; rate 0.1250 kg/ha): 3.0
Preemergence herbicidal rating CASOB ([4]; rate 0.2500 kg/ha): 9.0
SAGPY herbicidal effect rating ([5]; 0.0313 kg/ha): 3.5
SAGPY herbicidal effect rating ([5]; 0.0625 kg/ha): 3.5
SAGPY herbicidal effect rating ([5]; 0.1250 kg/ha): 3.5
SAGPY herbicidal effect rating ([5]; 0.2500 kg/ha): 4.5
herbicidal rating CASOB ([6]; rate 0.0158 kg/ha): 1.0
herbicidal rating CASOB ([6]; rate 0.0315 kg/ha): 1.0
herbicidal rating CASOB ([6]; rate 0.0630 kg/ha): 1.0
herbicidal rating IPOHE ([7]; rate 0.0158 kg/ha): 9.0
herbicidal rating IPOHE ([7]; rate 0.0315 kg/ha): 9.0
herbicidal rating IPOHE ([7]; rate 0.0630 kg/ha): 9.0
Preemergence herbicidal rating AMBEL ([8]; rate 0.0156 kg/ha): 0.0
Preemergence herbicidal rating AMBEL ([8]; rate 0.0313 kg/ha): 0.0
Preemergence herbicidal rating AMBEL ([8]; rate 0.0625 kg/ha): 0.0
Preemergence herbicidal rating AMBEL ([8]; rate 0.1250 kg/ha): 5.0
Preemergence herbicidal rating AMBEL ([8]; rate 0.2500 kg/ha): 7.0
Preemergence herbicidal rating CHEAL ([9]; rate 0.0156 kg/ha): 9.0
Preemergence herbicidal rating CHEAL ([9]; rate 0.0313 kg/ha): 9.0
Preemergence herbicidal rating CHEAL ([9]; rate 0.0625 kg/ha): 7.0
Preemergence herbicidal rating CHEAL ([9]; rate 0.1250 kg/ha): 9.0
Preemergence herbicidal rating CHEAL ([9]; rate 0.2500 kg/ha): 9.0
Preemergence herbicidal rating GALAP ([10]; rate 0.0156 kg/ha): 0.0
Preemergence herbicidal rating GALAP ([10]; rate 0.0313 kg/ha): 0.0
Preemergence herbicidal rating GALAP ([10]; rate 0.0625 kg/ha): 3.0
Preemergence herbicidal rating GALAP ([10]; rate 0.1250 kg/ha): 7.0
Preemergence herbicidal rating GALAP ([10]; rate 0.2500 kg/ha): 9.0
herbicidal rating SETVI ([11]; rate 0.0158 kg/ha): 4.0
herbicidal rating SETVI ([11]; rate 0.0315 kg/ha): 3.0
herbicidal rating SETVI ([11]; rate 0.0630 kg/ha): 9.0
herbicidal rating AMBEL ([12]; rate 0.0158 kg/ha): 4.0
herbicidal rating AMBEL ([12]; rate 0.0315 kg/ha): 9.0
herbicidal rating AMBEL ([12]; rate 0.0630 kg/ha): 7.0
herbicidal rating ZEAMX ([13]; rate 0.0158 kg/ha): 6.5
herbicidal rating ZEAMX ([13]; rate 0.0315 kg/ha): 7.0
herbicidal rating ZEAMX ([13]; rate 0.0630 kg/ha): 7.0
herbicidal rating TRZAWR ([14]; rate 0.0158 kg/ha): 2.0
herbicidal rating TRZAWR ([14]; rate 0.0315 kg/ha): 3.0
herbicidal rating TRZAWR ([14]; rate 0.0630 kg/ha): 4.0
Preemergence herbicidal rating ECHCG ([15]; rate 0.0156 kg/ha): 0.0
Preemergence herbicidal rating ECHCG ([15]; rate 0.0313 kg/ha): 0.0
Preemergence herbicidal rating ECHCG ([15]; rate 0.0625 kg/ha): 0.0
Preemergence herbicidal rating ECHCG ([15]; rate 0.1250 kg/ha): 2.0
Preemergence herbicidal rating ECHCG ([15]; rate 0.2500 kg/ha): 4.0
Preemergence herbicidal rating TRZAWR ([16]; rate 0.0156 kg/ha): 0.0
Preemergence herbicidal rating TRZAWR ([16]; rate 0.0313 kg/ha): 0.0
Preemergence herbicidal rating TRZAWR ([16]; rate 0.0625 kg/ha): 0.0
Preemergence herbicidal rating TRZAWR ([16]; rate 0.1250 kg/ha): 1.0
Preemergence herbicidal rating TRZAWR ([16]; rate 0.2500 kg/ha): 3.0
herbicidal rating GALAP ([17]; rate 0.0158 kg/ha): 1.0
herbicidal rating GALAP ([17]; rate 0.0315 kg/ha): 1.0
herbicidal rating GALAP ([17]; rate 0.0630 kg/ha): 3.0
